{"source": "patent US8053417B2", "about": "“Hexosylceramides as adjuvants and their uses in pharmaceutical compositions” (Helmholtz-Zentrum fuer Infektionsforschung GmbH, priority 2005, dated 2011)", "key": {"YAC-1 cells": {"system": "YAC-1 cells", "experiment": "51Cr-release assay with splenocytes of injected mice as effectors and YAC-1 cells as targets for NK cells", "assay_type": "in vivo", "method": "Experimental protocol: Mice received 10 μg of alphaGalCer or alphaGalCerMPEG by s.c. route, whereas control animals were injected by intraperitoneal route with 100 μg of CpG. After 2 days, they were sacrified and their splenocytes were used as effector cells in a standard 51Cr-release assay using YAC-1 cells as targets for NK cells. Effector cells were washed and their concentration was adjusted to 1×10^6/ml. In parallel, target cells were incubated in RPMKI medium without FCS containing 100 μCi of 51Cr for 2 h. Then, target cells were extensively washed with RPMI medium containing FCS and co-incubated in triplicates with effector cells at different effector:target (E:T) ratios. After 4 h, cells were centrifuged and the radioactivity present in supernatants was measured by scintillation counting. Maximal lysis was determined after lysis with 5% […], whereas spontaneous lysis was measured in supernatants of untreated target cells. Results are expressed as percentage of lysed cells, accordingly to the formula: (sample−spontaneous lysis)/(maximal lysis−spontaneous lysis)×100."}, "[1]": {"system": "Unstimulated spleen cells", "experiment": "In vitro stimulation of unstimulated spleen cells ([3H]thymidine uptake)", "assay_type": "cell-based, mice", "conditions": "4 days", "method": "Experimental protocol: Spleens from female BALB/c (H-2d, Harlan Winkelmann) or CD1d−/− (Jackson Laboratories) mice of 6 weeks of age were removed and pooled for analysis of cellular immune responses. Cells were grown in RPMI 1640 supplemented with 10% fetal calf serum, 100 U/ml of penicillin, 50 μg/ml of streptomycin, 5×10^−5 M 2-mercaptoethanol and 1 mM L-glutamine (GIBCO BRL, Karlsruhe, Germany) and maintained at 37° C. in a humidified 5% CO2 atmosphere. Spleen cell suspensions were adjusted to 5×10^6 cells/ml in complete medium, cells were seeded with 100 μl per well in a flat-bottomed 96-well microtiter plate (Nunc) and plates were incubated for 4 days. Unstimulated spleen cells were incubated in the presence of different concentrations of the new adjuvants to analyze the in vitro stimulation capacity of alphaGalCerMPEG. T cell mediated immune responses were investigated at day 38 by measuring the proliferation of cells recovered from spleens after in vitro restimulation with β-Gal. […] Cells were then harvested on paper filters (Filtermat A; Wallac, Freiburg, Germany) by using a cell harvester (Inotech, Wohlen, Switzerland), and the amount of incorporated [3H]thymidine into the DNA of proliferating cells was determined by a β-scintillation counter (Wallac 1450, Micro-Trilux). The results are expressed as the arithmetic mean of [3H]thymidine uptake in cpm."}, "[2]": {"conditions": "background statement; cited from earlier work"}, "[3]": {"system": "spleens of vaccinated mice", "experiment": "Elispot of beta-Gal specific cytokine secreting cells in spleens of vaccinated mice", "assay_type": "in vivo", "method": "Experimental protocol: Spleens from vaccinated mice were removed and pooled for analysis of cellular immune responses. The protocol for vaccination was identical to the protocol described in Example 3. Cells were grown in RPMI 1640 supplemented with 10% fetal calf serum, 100 U/ml of penicillin, 50 μg/ml of streptomycin, 5×10^−5 M 2-mercaptoethanol and 1 mM L-glutamine (GIBCO BRL, Karlsruhe, Germany) and maintained at 37° C. in a humidified 5% CO2 atmosphere. Lymph node and spleen cell suspensions were adjusted to 5×10^6 cells/ml in complete medium, cells were seeded with 100 μl per well in a flat-bottomed 96-well microtiter plate (Nunc) and plates were incubated 24 h (IFNgamma) or 48 h (IL-2 and IL-4) in the absence or presence of a beta-Gal peptide (TPHARIGL) encompassing a MHC class I-restricted epitope (for IFNgamma) or the beta-Gal protein (for IL-2 and IL-4), at a concentration of 10 μM. Then, cells were removed and the plates processed according to manufacture's instructions. Colored spots were counted with a C.T.L. Elispot reader and analysed using the ImmunoSpot image analyzer software v3.2.\nThus, to further characterize the T helper responses, the number of beta-Gal specific IFNgamma, IL-2 and IL-4 secreting cells present in spleens of vaccinated mice was determined. In agreement with the above results for IgG isotypes, high numbers of IL-4 secreting cells were detected in mice receiving alphaGalCerMPEG or alphaGalCer (FIG. 10)."}, "C57BI6 mice": {"system": "C57BI6 mice", "experiment": "VITAL assay (in vivo CTL), lysis of OVA peptide-pulsed target cells in immunized mice", "conditions": "10 μg adjuvant with 50 μg Ovalbumin", "method": "Experimental protocol: Six to eight weeks-old female C57BI6 mice were purchased from Harlan Winkelmann GmbH (Borchen, Germany) and treated in accordance with local and European Community guidelines. Groups of 5 mice each were immunized on day 1, 14 and 28 with 50 μg Ovalbumin (Sigma, Germany) alone or with 10 μg alphaGalCerMPEG or alphaGalCer. For intranasal immunization, 10 μl were applied to each naris, whereas for the s.c. injection Ovalbumin (ova) with or without alphaGalCerMPEG or alphaGalCer was resuspended in a volume of 50 μl PBS per animal. The determination of the in vivo lymphocyte-mediated cytotoxicity followed a protocol described by Hermans et. Al. (Herman, I. F., et. Al., 2004, The vital assay, J Immunol Methods, 285, 25-40). A suspension of splenocytes from naïve mice was depleted of red cells and split into two equal portions. The target cell preparation was labelled with a high concentration (1 μM) of CFSE (Molecular Probes) and pulsed for 1 h at 37° C. with the dominant OVA peptide (aa 257-264) at a concentration of 15 μg/ml. […] Cells from spleens were analyzed by flow cytometry after 16 h and 40 h, with the FACScalibur using the software BD cell Quest Pro. […] Cytotoxic activity was assessed with any variability in the proportion of cells in the different target populations assessed in a non-immunized control group for CTL assays."}, "[4]": {"system": "in vitro re-stimulated spleen cells", "experiment": "Cytometric Bead Array of cytokines in supernatants of in vitro re-stimulated spleen cells from vaccinated mice", "assay_type": "in vivo", "conditions": "parenteral administration (s.c.) with β-Gal", "method": "To characterize the type of Th response stimulated following immunization, the content of IFN-γ, IL-2, IL-6, IL-10, MCP-1, and TNFα was measured in supernatants from in vitro re-stimulated spleen cells (FIGS. 8 and 9) by the Cytometric Bead Array. Culture supernatants from proliferating cells were collected on days 2 and 4, and stored at −70° C. Determinations of IFN-γ, TNFα, IL-2, IL-6, IL-10 and MCP-1 were performed by cytometric bead array analysis using the commercial kit from BectonDickinson, according to the manufacturer's instructions. A standard curve was generated for each cytokine by using the corresponding recombinant murine cytokines (Pharmingen). Probes were incubated at room temperature for additional 2 h. The probes were analyzed subsequently by flow cytometry as described in the protocol of BD."}}}
{"smiles": "CCCCCCCCCCCCCCCCCCCCCCCCCC(=O)N[C@@H](CO[C@H]1O[C@H](CO)[C@H](O)[C@H](O)[C@H]1O)[C@H](O)[C@H](O)CCCCCCCCCCCCCC", "note": "[alphaGalCer, alpha-Galactosylceramide]", "values": [{"measurement": "lysis of YAC-1 cells", "setting": "YAC-1 cells; effector:target ratio 50:1, splenocytes 2 days after injection", "value": 34, "unit": "%"}, {"measurement": "lysis of YAC-1 cells", "setting": "YAC-1 cells; effector:target ratio 100:1, splenocytes 2 days after injection", "value": 37, "unit": "%"}, {"measurement": "stimulation of unstimulated spleen cells with different concentrations", "setting": "[1]", "value": "no dose dependent increase"}, {"measurement": "solubility in aqueous solvents", "setting": "[2]", "value": "poor"}, {"measurement": "number of IL-4 secreting cells", "setting": "[3]; spleens of vaccinated mice, beta-Gal protein 10 μM, 48 h", "value": "high numbers"}, {"measurement": "number of IFNgamma secreting cells", "setting": "[3]; stimulation with MHC class I restricted peptide, 24 h", "value": "increased to a significant minor extent"}, {"measurement": "number of IL-2 secreting cells", "setting": "[3]; stimulation with β-Gal protein, 48 h", "value": "increased to a significant minor extent"}, {"measurement": "fold increase of the cytotoxic potential of splenocytes with respect to OVA antigen alone (5%)", "setting": "C57BI6 mice", "value": 6.4, "unit": "fold"}, {"measurement": "specific lysis of peptide-coated target cells", "setting": "C57BI6 mice; day 1, 14 and 28", "value": 30, "unit": "%"}, {"measurement": "secretion of IFNgamma", "setting": "[4]", "value": "significant enhanced secretion"}, {"measurement": "secretion of IL-10", "setting": "[4]", "value": "significant enhanced secretion"}, {"measurement": "secretion of TNFalpha", "setting": "[4]", "value": "significant enhanced secretion"}]}
